Values quoted from earlier work in US20060275223A1, “Erythritol compositions for teeth and gums” (priority 2005, published 2006).

Details: erythritol comprises 20% of the diet

In the case of `OC[C@@H](O)[C@@H](O)CO` [erythritol], the diarrhea is given as “does not cause diarrhea”.
